# Measurements: patent US9346820B2, “HIV-1 protease inhibitors having gem-di-fluoro bicyclic P2-ligands” (priority 2013, dated 2016)
# Like-named read-outs stand apart in the source and are kept apart here.
# Columns and labels:
# Type in all cases: cell-based
# HIV-1ATV^R5μM = assay: microbe, parasite or virus in culture; conditions: for EC50: Human immunodeficiency virus 1, MT4, read-out: EC50 HIV-1ATV^R5μM; for fold change of EC50 HIV-1ATV^R5μM vs HIV-1NL4-3: number in parentheses
# Method: (§1) The susceptibility of HIV-1LAI to various drugs was determined as previously described with minor modifications. Briefly, MT-2 cells (10^4/ml) were exposed to 100 50% tissue culture infectious doses (TCID50) of HIV-1LAI in the presence or absence of various concentrations of drugs in 96-well microculture plates and were incubated at 37° C. for 7 days. After 100 μl of the medium was removed from each well, 3-(4,5-dimetylthiazol-2-yl)-2,5-diphenyltetrazolium bromide (MTT) solution (10 μl, 7.5 mg/ml in phosphate-buffered saline) was added to each well in the plate, followed by incubation at 37° C. for 2 h. […] All assays were performed in duplicate or triplicate. […] To determine the sensitivity of primary HIV-1 isolates to drugs, phytohemagglutinin-stimulated peripheral blood mononuclear cells (PHA-PBMC) (10^6/ml) were exposed to 50 TCID50 of each primary HIV-1 isolate and cultured in the presence or absence of various concentrations of drugs in 10-fold serial dilutions in 96-well microculture plates. In determining the drug susceptibility of certain laboratory HIV-1 strains, MT-4 cells were employed as target cells as previously described with minor modifications. In brief, MT-4 cells (10^5/ml) were exposed to 100 TCID50 of drug-resistant HIV-1 strains in the presence or absence of various concentrations of drugs and were incubated at 37° C. On day 7 of culture, the supernatants were harvested and the amounts of p24 Gag protein were determined by using a fully automated chemiluminescent enzyme immunoassay system (Lumipulse F: Fujirebio Inc., Tokyo). […] All assays were performed in duplicate or triplicate. PHA-PBMs were derived from a single donor in each independent experiment. Thus, for obtaining the data, three different donors were recruited.
# HIV-1SQV^R5μM = assay: microbe, parasite or virus in culture; conditions: for EC50: Human immunodeficiency virus 1, MT4, read-out: EC50 HIV-1SQV^R5μM; for fold change of EC50 HIV-1SQV^R5μM vs HIV-1NL4-3: number in parentheses
# Method: as §1
# HIV-1LPV^R5μM = assay: microbe, parasite or virus in culture; conditions: for EC50: Human immunodeficiency virus 1, MT4, read-out: EC50 HIV-1LPV^R5μM; for fold change of EC50 HIV-1LPV^R5μM vs HIV-1NL4-3: number in parentheses
# Method: as §1
# HIV-1APV^R5μM = assay: microbe, parasite or virus in culture; conditions: for EC50: Human immunodeficiency virus 1, MT4, read-out: EC50 HIV-1APV^R5μM; for fold change of EC50 HIV-1APV^R5μM vs HIV-1NL4-3: number in parentheses
# Method: as §1
# HIV-1ERS104pre = assay: p24 Gag production inhibition in PHA-PBMs, wild-type clinical isolate
# Method: All primary HIV-1 strains were passaged once or twice in 3-day-old phytohemagglutinin activated peripheral blood mononuclear cells (PHA-PBM), and the culture supernatants were stored at −80° C. until use.
# as §1
# HIV-1LAI [1] = assay: Drug susceptibility MTT assay, MT-2 cells exposed to HIV-1LAI; conditions: for Selectivity Index: ratio of CC50 to EC50 against HIV-1LAI
# Method: as §1
# HIV-1GRL05010^RP10 = assay: microbe, parasite or virus in culture; conditions: for EC50: Human immunodeficiency virus 1, MT4, read-out: EC50 HIV-1GRL05010^RP10; for fold change of EC50 HIV-1GRL05010^RP10 vs HIV-1NL4-3: number in parentheses
# Method: as §1
# (§2) The amounts of p24 were measured every two days for up to 7 days.
# HIV-1GRL04810^RP18 = assay: microbe, parasite or virus in culture; conditions: for EC50: Human immunodeficiency virus 1, MT4, read-out: EC50 HIV-1GRL04810^RP18; for fold change of EC50 HIV-1GRL04810^RP18 vs HIV-1NL4-3: number in parentheses
# Method: as §1, §2
# [2] = tested on: HIV-1GRL-04810^RP18, and HIV-1GRL-05010^RP10; assay: p24 assay, the two GRL-selected variants taken together; conditions: Human immunodeficiency virus 1, read-out: EC50 values against HIV-1GRL-04810^RP18 and HIV-1GRL-05010^RP10
# Method: as §1
# HIV-1LAI [3] = assay: Antiviral activity of brain-side medium from the BBB assay, MTT assay in MT-2 cells
# Method: The “brain-side” of the medium containing a compound collected in the BBB in vitro assay, was subjected to antiviral assays. Two HIV-1 isolates were employed, HIV-1LAI (Panel A) and HIV-1ERS104pre (Panel B). […] Dilution ranges were between 10-fold and 10,000-fold, and the percentage of viral inhibition was used as an endpoint. […] Assays were conducted in duplicate and error bars show standard deviations.
# The assay was carried out using 10, 100, 1000 and 10000 times-diluted brain-side stocks of compounds.
# [4] = Human immunodeficiency virus 1, read-out: EC50 HIV-1ERS104pre (X4)
# [5] = Human immunodeficiency virus 1, MT2, read-out: EC50 HIV-1LAI, MT-2 cells, 100 TCID50, MTT assay
# [6] = read-out: EC50 HIV-1LAI, MT-2 cells, 100 TCID50, MTT assay
# [7] = Human immunodeficiency virus 1, PHA-PBMs, p24 Gag endpoint, read-out: EC50 HIV-1ERS104pre (X4)
# [8] = Human immunodeficiency virus 1, MT2, MT-2 cells, 100 TCID50, MTT assay, read-out: EC50 HIV-1LAI
# [9] = 10-fold diluted brain-side medium
# [10] = 100-fold diluted brain-side medium
SMILES,EC50 (HIV-1ATV^R5μM) [nM],fold change of EC50 HIV-1ATV^R5μM vs HIV-1NL4-3 (HIV-1ATV^R5μM) [fold],EC50 (HIV-1SQV^R5μM) [nM],fold change of EC50 HIV-1SQV^R5μM vs HIV-1NL4-3 (HIV-1SQV^R5μM) [fold],EC50 (HIV-1LPV^R5μM) [nM],fold change of EC50 HIV-1LPV^R5μM vs HIV-1NL4-3 (HIV-1LPV^R5μM) [fold],EC50 (HIV-1APV^R5μM) [nM],EC50 (HIV-1ERS104pre; [4]) [nM],EC50 (HIV-1LAI [1]; [5]) [nM],Selectivity Index (HIV-1LAI [1]),EC50 (HIV-1LAI [1]; [6]) [nM],EC50 (HIV-1GRL05010^RP10) [nM],fold change of EC50 HIV-1GRL05010^RP10 vs HIV-1NL4-3 (HIV-1GRL05010^RP10) [fold],EC50 (HIV-1GRL04810^RP18) [nM],fold change of EC50 HIV-1GRL04810^RP18 vs HIV-1NL4-3 (HIV-1GRL04810^RP18) [fold],fold change of EC50 HIV-1APV^R5μM vs HIV-1NL4-3 (HIV-1APV^R5μM) [fold],EC50 (HIV-1ERS104pre; [7]) [nM],EC50 (HIV-1LAI [1]; [8]) [nM],EC50 [2] [nM],suppression of HIV-1LAI replication (HIV-1LAI [3]; [9]) [%],also measured
"COC(=O)N[C@H](C(=O)N[C@@H](Cc1ccccc1)[C@@H](O)CN(Cc1ccc(-c2ccccn2)cc1)NC(=O)[C@@H](NC(=O)OC)C(C)(C)C)C(C)(C)C [ATV, Atazanavir]",> 1000,> 250,> 1000,> 250,33,8,660 ± 20,2.1,5 to 30,"5,720",5 ± 1,95,24,325,81,–,–,–,–,–,–
"CC(C)CN(C[C@@H](O)[C@H](Cc1ccccc1)NC(=O)O[C@H]1CO[C@H]2OCC[C@H]21)S(=O)(=O)c1ccc(N)cc1 [DRV, darunavir]",50,–,40,–,32,–,510,4,5 to 30,–,5 ± 1,37,–,41,–,–,–,–,–,–,–
COc1ccc(S(=O)(=O)N(CC(C)C)C[C@@H](O)[C@H](Cc2ccccc2)NC(=O)OC2CO[C@H]3OCC(F)(F)[C@@H]23)cc1 (stereo partly shown) [GRL-04810],20,36,130,260,30,66,430,–,–,"21,875",–,29,58,33,66,860,2.3,0.8,29 to 39,94,suppression of HIV-1LAI replication (HIV-1LAI [3]; [10]): 45%
CC(C)CN(C[C@@H](O)[C@H](Cc1ccccc1)NC(=O)O[C@H]1CO[C@H]2OCC(F)(F)[C@H]21)S(=O)(=O)c1ccc(N)cc1 [GRL-05010],40,12,46,13,30,8,560,–,–,"12,333",–,36,10,39,13,187,2.7,3,29 to 39,91,suppression of HIV-1LAI replication (HIV-1LAI [3]; [10]): 73%
"CC(C)(C)NC(=O)[C@@H]1C[C@@H]2CCCC[C@@H]2CN1C[C@@H](O)[C@H](Cc1ccccc1)NC(=O)[C@H](CC(N)=O)NC(=O)c1ccc2ccccc2n1 [SQV, Saquinavir]",460,12,> 1000,> 25,25,1,90,3.9,–,843,–,36,1,32,1,2,–,–,32 to 36,–,suppression levels of brain-side preparations compared (FIG. 5A) (HIV-1LAI [3]; HIV-1LAI): less than those of GRL-04810^brain and GRL-05010^brain
